Measured values reported in patent US20240391902A1, “Crystalline Form of Compound” (Shenzhen Forward Pharmaceuticals Co., Limited, priority 2020, published 2024).

What was measured:
Type in all cases: physicochemical
[1] = Solid storage stability test; details: for chemical and physical stability after storage: solid/25° C./60% RH/open/1 week and/or solid/60° C./closed container/1 week
Protocol: Each amorphous salt solid was weighed (two 2 mg samples were weighed for purity testing after solid storage stability study, and one 10 mg sample was weighed for XRPD testing after solid storage stability study) and placed in a glass vial. In a 25° C./60% RH solid storage stability test, the amorphous salt solid was placed in a 25° C./60% RH constant temperature and humidity chamber, and placed in the dark for 1 week (i.e. “solid/25° C./60% RH/open/1 week”), and in a 60° C. solid storage stability test, the amorphous salt solid was sealed in an oven at 60° C. and heated for 1 week in the dark (i.e. “solid/60° C./closed container/1 week”). Then the sample was taken out for purity testing, crystal form detection and appearance observation, respectively.

[2] = Solid solubility test (2 h and 24 h); details: for Solubility measured at 2 h: 37° C., based on free base
Protocol: 5 samples were weighed for each amorphous salt solid (equivalent to 20 mg of free base), and 10 mL of the following solvents were respectively added: 0.1N HCl solution (pH 1.0), 50 mM phosphate buffer (pH 4.5), FeSSIF-V1 (pH 5.0), FaSSIF-V1 (pH 6.5) and SGF (pH 2.0), and stirred at 37° C. for 2 h. The suspension was then centrifuged at 37° C., the supernatant was measured for solubility by HPLC, and the solid fraction was measured for XRPD. The target solubility was at least 2 mg (based on free base)/mL.

Dynamic solubility test = details: for dynamic solubility: room temperature, feeding concentration 10 mg/mL
Protocol: Determination method: According to a feeding concentration of 10 mg/mL, about 50 mg of the sample were weighed and added to 5 mL of the corresponding medium, and the sample was dissolved by rotating at […] at room temperature.

[3] = Test BS1: solid/25° C./60% RH/open/1 week
[4] = Test BS2: solid/60° C./closed container/1 week

With `C=CC(=O)Nc1cc(Nc2ncnc(-c3cn(C)c4ccccc34)n2)c(OC)cc1N(C)CCN(C)C` [Example 7] as the molecule, how does the Color [1, 3] read?
Its Color is “slight color change”.

And the Color [1, 4]?
Its Color is “no color change”.

What about the “Morphology (XRPD crystallinity)” value [1, 4] of the same molecule?
The value was “amorphous (FIG. 98),”.

And the “Morphology (agglomeration, appearance)” value [1, 4]?
The value was “no agglomeration”.

What about the “chemical and physical stability after storage” value (“chemical and physical stability” below) ([1]; listed as 2 eq. besylate salt) of the same molecule?
The value was “physically unstable”.

What about the “chemical and physical stability” value ([1]; listed as amorphous 2 eq. besylate salt) of the same molecule?
The value was “physically unstable”.

What about the “physical and chemical stability (in words)” value ([1]; solid/25° C./60% RH/open/1 week, listed as amorphous 2 eq. besylate salt) of the same molecule?
Its value is “slight color change and showed significant hygroscopicity (caking and fusion to a glassy state)”.

What about the “physical and chemical stability (in words)” value ([1]; solid/60° C./closed container/1 week, listed as amorphous 2 eq. besylate salt) of the same molecule?
Its value is “good physical and chemical stability”.

What about the “pH measured at 2 h” value ([2]; Test ES4: FaSSIF-V1 (pH 6.5)) of the same molecule?
The value was “(6.1)”.

And the “Solubility measured at 2 h” value ([2]; Test ES4: FaSSIF-V1 (pH 6.5))?
The value was greater than 2 mg/mL.

Which results are given for `C=CC(=O)Nc1cc(Nc2ncnc(-c3cn(C)c4ccccc34)n2)c(OC)cc1N(C)CCN(C)C` [Example 10]?
Color [1, 3]: no color change; Morphology (XRPD crystallinity) [1, 3]: no crystal form; Color [1, 4]: no color change; Morphology (XRPD crystallinity) [1, 4]: no crystal form; chemical and physical stability after storage ([1]; listed as 1 eq. hydrobromide salt): chemically and physically stable; chemical and physical stability after storage ([1]; listed as crystalline 1 eq. hydrobromide salt): chemically and physically stable; physical and chemical stability (in words) ([1]; solid/25° C./60% RH/open/1 week, listed as crystalline 1 eq. hydrobromide salt): good physical and chemical stability; physical and chemical stability (in words) ([1]; solid/60° C./closed container/1 week, listed as crystalline 1 eq. hydrobromide salt): good physical and chemical stability; XRPD measured at 2 h (solid fraction) ([2]; Test ES4: FaSSIF-V1 (pH 6.5)): hydrobromide; pH measured at 2 h ([2]; Test ES4: FaSSIF-V1 (pH 6.5)): (6.4); Solubility measured at 2 h ([2]; Test ES5: SGF (pH 2.0)): >2 mg/ml mg/mL

Which results are given for `C=CC(=O)Nc1cc(Nc2ncnc(-c3cn(C)c4ccccc34)n2)c(OC)cc1N(C)CCN(C)C` [Example 8]?
Color [1, 3]: no color change; Color [1, 4]: no color change; Morphology (XRPD crystallinity) [1, 4]: amorphous (FIG. 100),; Morphology (agglomeration, appearance) [1, 4]: no agglomeration; chemical and physical stability after storage ([1]; listed as 1 eq. esylate salt): physically unstable; chemical and physical stability after storage ([1]; listed as amorphous 1 eq. esylate salt): physically unstable; physical and chemical stability (in words) ([1]; solid/25° C./60% RH/open/1 week, listed as amorphous 1 eq. esylate salt): significant hygroscopicity (caking and fusion to a glassy state); physical and chemical stability (in words) ([1]; solid/60° C./closed container/1 week, listed as amorphous 1 eq. esylate salt): good physical and chemical stability; pH measured at 2 h ([2]; Test ES4: FaSSIF-V1 (pH 6.5)): (6.4); Solubility measured at 2 h ([2]; Test ES4: FaSSIF-V1 (pH 6.5)): >2 mg/mL

Which dynamic solubility (Dynamic solubility test; FaSSIF, 0.5 h, listed as crystaline form III-A of hydrochloride salt) does the source give for `C=CC(=O)Nc1cc(Nc2ncnc(-c3cn(C)c4ccccc34)n2)c(OC)cc1N(C)CCN(C)C` [Example 23] here?
The dynamic solubility was 5300 µg/mL.

What about the dynamic solubility (Dynamic solubility test; FaSSIF, 1 h, listed as crystaline form III-A of hydrochloride salt) of the same molecule?
The dynamic solubility was 5200 µg/mL.

What about the dynamic solubility (Dynamic solubility test; FaSSIF, 2 h, listed as crystaline form III-A of hydrochloride salt) of the same molecule?
Its dynamic solubility is 5000 µg/mL.

And the dynamic solubility (Dynamic solubility test; FaSSIF, 4 h, listed as crystaline form III-A of hydrochloride salt)?
The dynamic solubility was 5000 µg/mL.

And the dynamic solubility (Dynamic solubility test; FaSSIF, 24 h, listed as crystaline form III-A of hydrochloride salt)?
Its dynamic solubility is 8200 µg/mL.

And the dynamic solubility (Dynamic solubility test; SGF, 0.5 h, listed as crystaline form III-A of hydrochloride salt)?
Its dynamic solubility is greater than 10000 µg/mL.

And the dynamic solubility (Dynamic solubility test; SGF, 1 h, listed as crystaline form III-A of hydrochloride salt)?
The dynamic solubility was greater than 10000 µg/mL.

And the dynamic solubility (Dynamic solubility test; SGF, 2 h, listed as crystaline form III-A of hydrochloride salt)?
Its dynamic solubility is greater than 10000 µg/mL.

And the dynamic solubility (Dynamic solubility test; SGF, 4 h, listed as crystaline form III-A of hydrochloride salt)?
Its dynamic solubility is greater than 10000 µg/mL.

What about the dynamic solubility (Dynamic solubility test; SGF, 24 h, listed as crystaline form III-A of hydrochloride salt) of the same molecule?
Its dynamic solubility is greater than 10000 µg/mL.

Which results are given for `C=CC(=O)Nc1cc(Nc2ncnc(-c3cn(C)c4ccccc34)n2)c(OC)cc1N(C)CCN(C)C` [Example 22]?
dynamic solubility (Dynamic solubility test; FaSSIF, 0.5 h, listed as crystaline form II-A of mesylate salt): 6600 µg/mL; dynamic solubility (Dynamic solubility test; FaSSIF, 1 h, listed as crystaline form II-A of mesylate salt): 6200 µg/mL; dynamic solubility (Dynamic solubility test; FaSSIF, 2 h, listed as crystaline form II-A of mesylate salt): 7000 µg/mL; dynamic solubility (Dynamic solubility test; FaSSIF, 4 h, listed as crystaline form II-A of mesylate salt): 6900 µg/mL; dynamic solubility (Dynamic solubility test; FaSSIF, 24 h, listed as crystaline form II-A of mesylate salt): 9900 µg/mL; dynamic solubility (Dynamic solubility test; SGF, 0.5 h, listed as crystaline form II-A of mesylate salt): >10000 µg/mL; dynamic solubility (Dynamic solubility test; SGF, 1 h, listed as crystaline form II-A of mesylate salt): >10000 µg/mL; dynamic solubility (Dynamic solubility test; SGF, 2 h, listed as crystaline form II-A of mesylate salt): >10000 µg/mL; dynamic solubility (Dynamic solubility test; SGF, 4 h, listed as crystaline form II-A of mesylate salt): >10000 µg/mL; dynamic solubility (Dynamic solubility test; SGF, 24 h, listed as crystaline form II-A of mesylate salt): >10000 µg/mL; solubility (Dynamic solubility test; water, SGF, FaSSIF and FeSSIF, thermodynamic from solid, water, SGF, FaSSIF and FeSSIF, all time points, read-out: dynamic solubility in water, SGF, FaSSIF and FeSSIF (conclusion)): > 4000 µg/mL

For `C=CC(=O)Nc1cc(Nc2ncnc(-c3cn(C)c4ccccc34)n2)c(OC)cc1N(C)CCN(C)C` [Example 24], which dynamic solubility (Dynamic solubility test; FaSSIF, 0.5 h, listed as crystaline form IV-C of maleate salt) is on record?
The dynamic solubility was 6100 µg/mL.

What about the dynamic solubility (Dynamic solubility test; FaSSIF, 1 h, listed as crystaline form IV-C of maleate salt) of the same molecule?
Its dynamic solubility is 6200 µg/mL.

What about the dynamic solubility (Dynamic solubility test; SGF, 0.5 h, listed as crystaline form IV-C of maleate salt) of the same molecule?
The dynamic solubility was greater than 10000 µg/mL.

And the dynamic solubility (Dynamic solubility test; SGF, 1 h, listed as crystaline form IV-C of maleate salt)?
Its dynamic solubility is greater than 10000 µg/mL.

What about the dynamic solubility (Dynamic solubility test; SGF, 2 h, listed as crystaline form IV-C of maleate salt) of the same molecule?
The dynamic solubility was greater than 10000 µg/mL.

And the dynamic solubility (Dynamic solubility test; SGF, 4 h, listed as crystaline form IV-C of maleate salt)?
Its dynamic solubility is greater than 10000 µg/mL.

And the dynamic solubility (Dynamic solubility test; SGF, 24 h, listed as crystaline form IV-C of maleate salt)?
Its dynamic solubility is greater than 10000 µg/mL.

With `C=CC(=O)Nc1cc(Nc2ncnc(-c3cn(C)c4ccccc34)n2)c(OC)cc1N(C)CCN(C)C` [Example 5] as the molecule, how does the “Morphology (XRPD crystallinity)” value [1, 3] read?
Its value is “low crystallinity (FIG”.

And the “Morphology (agglomeration, appearance)” value [1, 3]?
Its value is 94), agglomeration.

What about the “Morphology (XRPD crystallinity)” value [1, 4] of the same molecule?
The value was “amorphous (FIG. 94),”.

And the “Morphology (agglomeration, appearance)” value [1, 4]?
Its value is “partial agglomeration”.

What about the “chemical and physical stability” value ([1]; listed as 2 eq. mesylate salt) of the same molecule?
Its value is “physically unstable”.

What about the “chemical and physical stability” value ([1]; listed as amorphous 2 eq. mesylate salt) of the same molecule?
The value was “physically unstable”.

And the “physical and chemical stability (in words)” value ([1]; solid/25° C./60% RH/open/1 week, listed as amorphous 2 eq. mesylate salt)?
The value was “transformed from amorphous to a low crystallinity and showed a certain hygroscopicity (agglomeration)”.

What about the “physical and chemical stability (in words)” value ([1]; solid/60° C./closed container/1 week, listed as amorphous 2 eq. mesylate salt) of the same molecule?
The value was “a certain hygroscopicity (partial agglomeration)”.

What about the “pH measured at 2 h” value ([2]; Test ES4: FaSSIF-V1 (pH 6.5)) of the same molecule?
Its value is “(6.2)”.

For `C=CC(=O)Nc1cc(Nc2ncnc(-c3cn(C)c4ccccc34)n2)c(OC)cc1N(C)CCN(C)C` [Example 6], which “Morphology (XRPD crystallinity)” value [1, 3] is on record?
Its value is “amorphous (FIG. 96),”.

What about the “Morphology (XRPD crystallinity)” value [1, 4] of the same molecule?
The value was “amorphous (FIG. 96),”.

And the “chemical and physical stability” value ([1]; listed as 1 eq. besylate salt)?
Its value is “chemically unstable”.

And the “chemical and physical stability” value ([1]; listed as amorphous 1 eq. besylate salt)?
The value was “chemically unstable”.

And the “physical and chemical stability (in words)” value ([1]; solid/60° C./closed container/1 week, listed as amorphous 1 eq. besylate salt)?
Its value is “good physical and chemical stability”.
